The source made the active and inactive calls. The calls are words filed in the database; no cut-off is given here.

Two compounds from ChEMBL document CHEMBL1156867, “Improved synthesis of a fluorogenic ceramidase substrate” (Bioorg Med Chem, 2010) can be followed below.

Experiment [1] has as its system SK-OV-3. Briefly: Activity of ceramidase in human SKOV3 cells assessed as formation of 7-(((3R,4S)-4-amino-3,5- dihydroxypentyl)oxy)-2H-chromen-2-one at 16 uM after 24 hrs at 37 degC by HPLC. Format: cell-based.
Experiment [2] relates to SK-OV-3. Nature of the experiment: Activity of ceramidase in human SKOV3 cells assessed as formation of 7-(((3R,4S)-4-amino-3,5- dihydroxypentyl)oxy)-2H-chromen-2-one at 16 uM after 1 to 24 hrs at 37 degC by HPLC. Format: cell-based. To be noted: TDE = time-dependent effect.
The test system of experiment [3] is SK-OV-3. Briefly: Activity of ceramidase in human SKOV3 cells assessed as formation of 7-(((3R,4S)-4-amino-3,5- dihydroxypentyl)oxy)-2H-chromen-2-one at 16 uM after 1 to 24 hrs at 37 degC by umbelliferone formation based fluorescence intensity assay. Format: cell-based. To be noted: TDE = time-dependent effect.
Experiment [4] is described as follows: Inhibition of ceramidase in human SKOV3 cells assessed as hydrolysis of N-((2S,3R)-1,3-dihydroxy-5-((2-oxo-2H-chromen-7-yl)oxy)pentan-2-yl)palmitamide at 16 uM after 24 hrs at 37 degC by umbelliferone formation based fluorescence intensity assay. Format: cell-based, SK-OV-3.
Experiment [5] can be described thus: Inhibition of ceramidase in human SKOV3 cells assessed as hydrolysis of N-((2S,3R)-1,3-dihydroxy-5-((2-oxo-2H-chromen-7-yl)oxy)pentan-2-yl)palmitamide at 16 uM after 24 hrs at 37 degC by HPLC. To be noted: sk-ov-3. Format: cell-based.
Experiment [6] in a line: Inhibition of rat liver ceramidase assessed as hydrolysis of N-((2S,3R)-1,3-dihydroxy-5-((2-oxo-2H-chromen-7-yl)oxy)pentan-2-yl)palmitamide.
A short description of experiment [7]: Inhibition of pig liver ceramidase assessed as hydrolysis of N-((2S,3R)-1,3-dihydroxy-5-((2-oxo-2H-chromen-7-yl)oxy)pentan-2-yl)palmitamide. Also on record: species or system Sus scrofa.

As to `CCCCCCCCCCCCCCCC(=O)N[C@@H](CO)[C@H](O)CCOc1ccc2ccc(=O)oc2c1`, the result in the experiment on SK-OV-3 [1] was Active. The Activity entry in the experiment with SK-OV-3 [2] and in the experiment on SK-OV-3 [3] was “tde” throughout.
A word on the IC50: it is the concentration that gives 50% inhibition. For the compound `CCCCCCCC/C=C\CCCCCCCC(=O)NCCO` [OLEOYLETHANOLAMIDE], the IC50 was 28 µM in experiment [4] (Homo sapiens, SK-OV-3, 24 h, read-out: IC50); “Dose-dependent effect” in experiment [4] (sk-ov-3); “Dose-dependent effect” in experiment [5]; 24 µM in experiment [5] (read-out: IC50); 71 µM in experiment [6]; 76 µM in experiment [7].
